Test results taken from US20210113501A1, “METHOD OF ADMINISTERING BETA-HYDROXY-BETA-METHYLBUTYRATE (HMB)” (Metabolic Technologies, Inc., priority 2009, published 2021).

Assay: Study 2 blood chemistry
Type: in vivo, human
Conditions: for Aspartate Aminotransferase / Gamma-glutamyl: in U/L (unit assumed)
Procedure: Study 2 design. Study 2 was conducted similar to study 1 with the following modifications. In study 2, plasma levels of HMB were measured for 1440 min (24 h) and total urine collection was also performed for measurement of urinary HMB excretion during this period. After the 180 min blood sample, the subjects were allowed to leave the laboratory and were instructed to return to the laboratory for additional blood samples at 360, 720, and 1440 min after the ingestion of the supplement. As in study 1, each subject took each of the treatments with at least a one week washout period between treatments. Samples were again stored frozen at −70° C. for analysis of plasma and urinary HMB concentrations. Pre-ingestion, 180 min and 1440 min blood samples were again assayed for the same measurements already for study 1. Subjects were provided with a standardized lunch after the 180 min blood sampling and instructed to eat this at approximately 240 min post ingestion. Following the 720 min blood sample, subjects were instructed to eat a normal evening meal before 10 pm. Subjects reported back to the laboratory the following morning for the fasted 1440 min blood sample. A urine collection container was provided and subjects collected all urine produced during the experimental 24 h experimental period. The urine was stored refrigerated when not being collected. Urine volumes were measured and samples of the total urine collection were taken and stored frozen at −70° C. until analyzed for HMB.
The data were analyzed using a crossover design with Proc GLM in SAS. (45) For the timed sampling of plasma HMB a repeated measures polynomial model was used. The model included subject, order, and treatment main effects and time by treatment interaction where appropriate. For other parameters Proc GLM was also used with subject, order, and treatment main effects and the p values are reported for the treatment main effect. Statistical significance was determined for p<0.05 and a trend was determined for 0.05<p<0.10.

Compound: CC(C)(O)CC(=O)[O-].CC(C)(O)CC(=O)[O-].[Ca+2] [CaHMB, calcium β-hydroxy-β-methylbutryate, reference compound]
- A:G Ratio (After (24 h)): 1.8 ± 0.1
- Alanine Aminotransferase (After (24 h)): 14.9 ± 2.2 IU/L
- Albumin (After (24 h)): 4.2 ± 0.1 g/dL
- Alkaline Phosphatase (After (24 h)): 66.8 ± 6.9 IU/L
- Blood Urea Nitrogen (After (24 h)): 13.4 ± 1.0 mg/dL
- CO2 (After (24 h)): 27.3 ± 0.6 mEq/L
- Chloride (After (24 h)): 103.0 ± 0.5 mEq/L
- Cholesterol Ratio (After (24 h)): 3.1 ± 0.2
- Creatinine (After (24 h)): 1.0 ± 0.1 mg/dL
- Direct Bilirubin (After (24 h)): 0.1 ± 0.04 mg/dL
- Globulin (After (24 h)): 2.4 ± 0.1 g/dL
- Glucose (After (24 h)): 80.3 ± 2.4 mg/dL
- HDL (After (24 h)): 54.0 ± 3.5 mg/dL
- Iron (After (24 h)): 59.9 ± 12.2 µg/dL
- Iron Binding Capacity (After (24 h)): 377.5 ± 30.3 µg/dL
- Iron Saturation (After (24 h)): 17.5 ± 4.2%
- LDL (After (24 h)): 88.6 ± 5.9 mg/dL
- Lactate Dehydrogenase (After (24 h)): 142.4 ± 10.5 IU/L
- Phosphorus (After (24 h)): 4.4 ± 0.1 mg/dL
- Potassium (After (24 h)): 4.7 ± 0.1 mEq/L
- Protein (After (24 h)): 6.5 ± 0.2 g/dL
- Sodium (After (24 h)): 141.4 ± 0.5 mEq/L
- Total Bilirubin (After (24 h)): 0.5 ± 0.2 mg/dL
- Total Cholesterol (After (24 h)): 162.9 ± 7.1 mg/dL
- Triglycerides (After (24 h)): 106.9 ± 17.6 mg/dL
- UIBC (After (24 h)): 317.6 ± 38.3 µg/dL
- Uric Acid (After (24 h)): 4.2 ± 0.5 mg/dL
- Aspartate Aminotransferase (After (24 h)): 20.0 ± 1.1
- Gamma-glutamyl (After (24 h)): 14.3 ± 1.4
- A:G Ratio (Before): 1.9 ± 0.1
- Alanine Aminotransferase (Before): 15.4 ± 1.8 IU/L
- Albumin (Before): 4.1 ± 0.1 g/dL
- Alkaline Phosphatase (Before): 65.5 ± 7.3 IU/L
- Blood Urea Nitrogen (Before): 14.8 ± 1.4 mg/dL
- CO2 (Before): 24.9 ± 0.6 mEq/L
- Chloride (Before): 102.4 ± 0.5 mEq/L
- Cholesterol Ratio (Before): 3.1 ± 0.2
- Creatinine (Before): 1.0 ± 0.1 mg/dL
- Direct Bilirubin (Before): 0.2 ± 0.1 mg/dL
- Globulin (Before): 2.2 ± 0.1 g/dL
- Glucose (Before): 70.8 ± 0.8 mg/dL
- HDL (Before): 52.3 ± 2.7 mg/dL
- Iron (Before): 99.0 ± 20.0 µg/dL
- Iron Binding Capacity (Before): 371.8 ± 28.6 µg/dL
- Iron Saturation (Before): 28.4 ± 5.8%
- LDL (Before): 88.6 ± 7.2 mg/dL
- Lactate Dehydrogenase (Before): 161.8 ± 12.6 IU/L
- Phosphorus (Before): 4.0 ± 0.1 mg/dL
- Potassium (Before): 4.1 ± 0.1 mEq/L
- Protein (Before): 6.4 ± 0.2 g/dL
- Sodium (Before): 139.5 ± 0.8 mEq/L
- Total Bilirubin (Before): 0.6 ± 0.1 mg/dL
- Total Cholesterol (Before): 160.4 ± 8.0 mg/dL
- Triglycerides (Before): 97.4 ± 12.5 mg/dL
- UIBC (Before): 272.8 ± 39.5 µg/dL
- Uric Acid (Before): 4.8 ± 0.3 mg/dL
- A:G Ratio % Change (Before to After): −3.4%
- Alanine Aminotransferase % Change (Before to After): −3.3%
- Albumin % Change (Before to After): 0.6%
- Alkaline Phosphatase % Change (Before to After): 1.9%
- Aspartate Aminotransferase % Change (Before to After): −11.6%
- Blood Urea Nitrogen % Change (Before to After): −9.3%
- CO2 % Change (Before to After): 9.5%
- Chloride % Change (Before to After): 0.6%
- Cholesterol Ratio % Change (Before to After): −0.8%
- Creatinine % Change (Before to After): −1.5%
- Direct Bilirubin % Change (Before to After): −37.4%
- Gamma-glutamyl % Change (Before to After): 1.8%
- Globulin % Change (Before to After): 6.7%
- Glucose % Change (Before to After): 13.4%
- HDL % Change (Before to After): 3.3%
- Iron % Change (Before to After): −39.5%
- Iron Binding Capacity % Change (Before to After): 1.5%
- Iron Saturation % Change (Before to After): −38.3%
- LDL % Change (Before to After): 0.0%
- Lactate Dehydrogenase % Change (Before to After): −12.0%
- Phosphorus % Change (Before to After): 10.6%
- Potassium % Change (Before to After): 14.8%
- Protein % Change (Before to After): 2.8%
- Sodium % Change (Before to After): 1.3%
- Total Bilirubin % Change (Before to After): −17.8%
- Total Cholesterol % Change (Before to After): 1.6%
- Triglycerides % Change (Before to After): 9.8%
- UIBC % Change (Before to After): 16.5%
- Uric Acid % Change (Before to After): −12.0%
- Aspartate Aminotransferase (Before): 22.6 ± 1.4
- Gamma-glutamyl (Before): 14.0 ± 1.9
